≈ marks a conversion by molar mass, not a printed value.
Assays:
Assay in all cases: microbe, parasite or virus in culture
Format in all cases: cell-based
[1] = tested on: M. tuberculosis PT2 strain; details: Mycobacterium tuberculosis, PT2STRAIN, read-out: MIC PT2
[2] = tested on: M. tuberculosis PT12 strain; details: Mycobacterium tuberculosis, PT12STRAIN, read-out: MIC PT12
[3] = tested on: M. tuberculosis PT20 strain; details: Mycobacterium tuberculosis, PT20STRAIN, read-out: MIC PT20

SMILES: Fc1ccc2[nH]ccc2c1 [Compound 1, 5-Fluoroindole]
- MIC [1]: 4.7 µM (≈ 0.635 µg/mL)
- MIC [2]: 4.7 µM (≈ 0.635 µg/mL)
- MIC [3]: 4.7 µM (≈ 0.635 µg/mL)

SMILES: NNC(=O)c1ccncc1 [INH, isoniazid, reference compound]
- MIC [2]: 146 µM (≈ 20 µg/mL)
